Experiments:
Format in all cases: in vivo
[1] = test system: Johnsongrass (Sorghum halepense, SORHA); assay: Pre-emerge greenhouse herbicide test, phytotoxicity rating; details: 14 days after application, rating scale 0-100
Method in brief: (§1)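 Seeds sown in sandy loam one day before track-sprayer application of acetone solutions at 125–1000 g ai/ha (187 l/ha), then surface-watered to incorporate and bottom-watered. Injury scored visually at 14 days on a 0–100 scale (0 no damage, 100 complete death).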

[2] = test system: barnyardgrass (Echinochloa crusgalli, ECHCG); assay: as above; details: 14 days after application, rating scale 0-100
Method in brief: as §1

[3] = test system: common ragweed (Ambrosia artemisiifolia L., AMBEL); assay: as above; details: 14 days after application, rating scale 0-100
Method in brief: as §1

[4] = test system: green foxtail (Setaria viridis, SETVI); assay: as above; details: 14 days after application, rating scale 0-100
Method in brief: as §1

[5] = test system: ivyleaf morningglory (Ipomoea hederacea, IPOHE); assay: as above; details: 14 days after application, rating scale 0-100
Method in brief: as §1

[6] = test system: lambsquarters (Chenopodium album, CHEAL); assay: as above; details: 14 days after application, rating scale 0-100
Method in brief: as §1

[7] = test system: large crabgrass (Digitaria sanguinalis, DIGSA); assay: as above; details: 14 days after application, rating scale 0-100
Method in brief: as §1

[8] = test system: redroot pigweed (Amaranthus retroflexus, AMARE); assay: as above; details: 14 days after application, rating scale 0-100
Method in brief: as §1

[9] = test system: sicklepod (Cassia obtusifolia, CASOB); assay: as above; details: 14 days after application, rating scale 0-100
Method in brief: as §1

[10] = test system: velvetleaf (Abutilon theophrasti, ABUTH); assay: as above; details: 14 days after application, rating scale 0-100
Method in brief: as §1

[11] = test system: field corn (Zea mays L., var. Dekalb 535, CORN); assay: Pre-emerge greenhouse test, crop damage rating; details: 14 days after application, rating scale 0-100
Method in brief: as §1

[12] = test system: upland rice (Oryza sp., var.Tebonnet, RICE); assay: Pre-emerge greenhouse test, crop damage rating; details: 14 days after application, rating scale 0-100
Method in brief: as §1

[13] = test system: soybean (Glycine max L., var. Pella 86, SOY); assay: Pre-emerge greenhouse test, crop damage rating; details: 14 days after application, rating scale 0-100
Method in brief: as §1

[14] = test system: common ragweed (Ambrosia artemisiifolia L., AMBEL); assay: Post-emerge greenhouse herbicide test, phytotoxicity rating; details: 14 days after application
Method in brief: (§2)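 Plants at the 2-3 leaf stage, sown 8-21 days earlier, were track-sprayed post-emergence with compound in acetone plus 0.25% v/v non-ionic surfactant at 63-1000 g ai/ha (187 l/ha). Damage was rated at 14 days on a 0-100 scale (0 none, 100 all plants dead), for both crop injury and weed control.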

[15] = test system: Johnsongrass (Sorghum halepense, SORHA); assay: as above; details: 14 days after application
Method in brief: as §2

[16] = test system: barnyardgrass (Echinochloa crusgalli, ECHCG); assay: as above; details: 14 days after application
Method in brief: as §2

[17] = test system: green foxtail (Setaria viridis, SETVI); assay: as above; details: 14 days after application
Method in brief: as §2

[18] = test system: ivyleaf morningglory (Ipomoea hederacea, IPOHE); assay: as above; details: 14 days after application
Method in brief: as §2

[19] = test system: lambsquarters (Chenopodium album, CHEAL); assay: as above; details: 14 days after application
Method in brief: as §2

[20] = test system: large crabgrass (Digitaria sanguinalis, DIGSA); assay: as above; details: 14 days after application
Method in brief: as §2

[21] = test system: redroot pigweed (Amaranthus retroflexus, AMARE); assay: as above; details: 14 days after application
Method in brief: as §2

[22] = test system: sicklepod (Cassia obtusifolia, CASOB); assay: as above; details: 14 days after application
Method in brief: as §2

[23] = test system: velvetleaf (Abutilon theophrasti, ABUTH); assay: as above; details: 14 days after application
Method in brief: as §2

[24] = test system: field corn (Zea mays L., var. Dekalb 535, CORN); assay: Post-emerge greenhouse test, crop damage rating; details: 14 days after application
Method in brief: as §2

[25] = test system: upland rice (Oryza sp., var.Tebonnet, RICE); assay: Post-emerge greenhouse test, crop damage rating; details: 14 days after application
Method in brief: as §2

[26] = test system: soybean (Glycine max L., var. Pella 86, SOY); assay: Post-emerge greenhouse test, crop damage rating; details: 14 days after application
Method in brief: as §2

## N#Cc1cccnc1Oc1cc(-n2nnn(CCCF)c2=O)c(F)cc1Cl [Compound 6-4]
[1]; 125 g ai/ha
  phytotoxicity rating SORHA: 20
[1]; 500 g ai/ha
  phytotoxicity rating SORHA: 100
[2]; 125 g ai/ha
  phytotoxicity rating ECHCG: 0
[2]; 500 g ai/ha
  phytotoxicity rating ECHCG: 95
[3]; 125 g ai/ha
  phytotoxicity rating AMBEL: 0
[3]; 500 g ai/ha
  phytotoxicity rating AMBEL: 40
[4]; 125 g ai/ha
  phytotoxicity rating SETVI: 100
[4]; 500 g ai/ha
  phytotoxicity rating SETVI: 100
[5]; 125 g ai/ha
  phytotoxicity rating IPOHE: 40
[5]; 500 g ai/ha
  phytotoxicity rating IPOHE: 100
[6]; 125 g ai/ha
  phytotoxicity rating CHEAL: 100
[6]; 500 g ai/ha
  phytotoxicity rating CHEAL: 100
[7]; 125 g ai/ha
  phytotoxicity rating DIGSA: 70
[7]; 500 g ai/ha
  phytotoxicity rating DIGSA: 100
[8]; 125 g ai/ha
  phytotoxicity rating AMARE: 100
[8]; 500 g ai/ha
  phytotoxicity rating AMARE: 100
[9]; 125 g ai/ha
  phytotoxicity rating CASOB: 50
[9]; 500 g ai/ha
  phytotoxicity rating CASOB: 30
[10]; 125 g ai/ha
  phytotoxicity rating ABUTH: 100
[10]; 500 g ai/ha
  phytotoxicity rating ABUTH: 100
[11]; 125 g ai/ha
  crop damage rating CORN: 0
[11]; 500 g ai/ha
  crop damage rating CORN: 10
[12]; 125 g ai/ha
  crop damage rating RICE: 15
[12]; 500 g ai/ha
  crop damage rating RICE: 35
[13]; 125 g ai/ha
  crop damage rating SOY: 0
[13]; 500 g ai/ha
  crop damage rating SOY: 20
[14]; 63 g al/ha
  AMBEL phytotoxicity rating (0-100): 20
[14]; 500 g al/ha
  AMBEL phytotoxicity rating (0-100): 20
[15]; 63 g al/ha
  SORHA phytotoxicity rating (0-100): 0
[15]; 500 g al/ha
  SORHA phytotoxicity rating (0-100): 80
[16]; 63 g al/ha
  ECHCG phytotoxicity rating (0-100): 0
[16]; 500 g al/ha
  ECHCG phytotoxicity rating (0-100): 60
[17]; 63 g al/ha
  SETVI phytotoxicity rating (0-100): 20
[17]; 500 g al/ha
  SETVI phytotoxicity rating (0-100): 40
[18]; 63 g al/ha
  IPOHE phytotoxicity rating (0-100): 65
[18]; 500 g al/ha
  IPOHE phytotoxicity rating (0-100): 85
[19]; 63 g al/ha
  CHEAL phytotoxicity rating (0-100): 85
[19]; 500 g al/ha
  CHEAL phytotoxicity rating (0-100): 100
[20]; 63 g al/ha
  DIGSA phytotoxicity rating (0-100): 0
[20]; 500 g al/ha
  DIGSA phytotoxicity rating (0-100): 0
[21]; 63 g al/ha
  AMARE phytotoxicity rating (0-100): 75
[21]; 500 g al/ha
  AMARE phytotoxicity rating (0-100): 99
[22]; 63 g al/ha
  CASOB phytotoxicity rating (0-100): 15
[22]; 500 g al/ha
  CASOB phytotoxicity rating (0-100): 50
[23]; 63 g al/ha
  ABUTH phytotoxicity rating (0-100): 90
[23]; 500 g al/ha
  ABUTH phytotoxicity rating (0-100): 100
[24]; 63 g al/ha
  CORN crop damage rating (0-100): 10
[24]; 500 g al/ha
  CORN crop damage rating (0-100): 20
[25]; 63 g al/ha
  RICE crop damage rating (0-100): 20
[25]; 500 g al/ha
  RICE crop damage rating (0-100): 35
[26]; 63 g al/ha
  SOY crop damage rating (0-100): 20
[26]; 500 g al/ha
  SOY crop damage rating (0-100): 60

## Cc1nsc(Oc2cc(-n3nnn(CCCF)c3=O)c(F)cc2Cl)c1[N+](=O)[O-] [Compound 6-17]
[1]; 125 g ai/ha
  phytotoxicity rating SORHA: 0
[1]; 500 g ai/ha
  phytotoxicity rating SORHA: 0
[2]; 125 g ai/ha
  phytotoxicity rating ECHCG: 0
[2]; 500 g ai/ha
  phytotoxicity rating ECHCG: 0
[3]; 125 g ai/ha
  phytotoxicity rating AMBEL: 0
[3]; 500 g ai/ha
  phytotoxicity rating AMBEL: 0
[4]; 125 g ai/ha
  phytotoxicity rating SETVI: 0
[4]; 500 g ai/ha
  phytotoxicity rating SETVI: 0
[5]; 125 g ai/ha
  phytotoxicity rating IPOHE: 0
[5]; 500 g ai/ha
  phytotoxicity rating IPOHE: 0
[6]; 125 g ai/ha
  phytotoxicity rating CHEAL: 0
[6]; 500 g ai/ha
  phytotoxicity rating CHEAL: 0
[7]; 125 g ai/ha
  phytotoxicity rating DIGSA: 0
[7]; 500 g ai/ha
  phytotoxicity rating DIGSA: 0
[8]; 125 g ai/ha
  phytotoxicity rating AMARE: 0
[8]; 500 g ai/ha
  phytotoxicity rating AMARE: 0
[9]; 125 g ai/ha
  phytotoxicity rating CASOB: 0
[9]; 500 g ai/ha
  phytotoxicity rating CASOB: 0
[10]; 125 g ai/ha
  phytotoxicity rating ABUTH: 0
[10]; 500 g ai/ha
  phytotoxicity rating ABUTH: 0
[11]; 125 g ai/ha
  crop damage rating CORN: 0
[11]; 500 g ai/ha
  crop damage rating CORN: 0
[12]; 125 g ai/ha
  crop damage rating RICE: 6
[12]; 500 g ai/ha
  crop damage rating RICE: 0
[13]; 125 g ai/ha
  crop damage rating SOY: 0
[13]; 500 g ai/ha
  crop damage rating SOY: 0
[14]; 63 g al/ha
  AMBEL phytotoxicity rating (0-100): 0
[14]; 500 g al/ha
  AMBEL phytotoxicity rating (0-100): 0
[15]; 63 g al/ha
  SORHA phytotoxicity rating (0-100): 0
[15]; 500 g al/ha
  SORHA phytotoxicity rating (0-100): 0
[16]; 63 g al/ha
  ECHCG phytotoxicity rating (0-100): 0
[16]; 500 g al/ha
  ECHCG phytotoxicity rating (0-100): 0
[17]; 63 g al/ha
  SETVI phytotoxicity rating (0-100): 0
[17]; 500 g al/ha
  SETVI phytotoxicity rating (0-100): 0
[18]; 63 g al/ha
  IPOHE phytotoxicity rating (0-100): 0
[18]; 500 g al/ha
  IPOHE phytotoxicity rating (0-100): 0
[19]; 63 g al/ha
  CHEAL phytotoxicity rating (0-100): 0
[19]; 500 g al/ha
  CHEAL phytotoxicity rating (0-100): 0
[20]; 63 g al/ha
  DIGSA phytotoxicity rating (0-100): 0
[20]; 500 g al/ha
  DIGSA phytotoxicity rating (0-100): 0
[21]; 63 g al/ha
  AMARE phytotoxicity rating (0-100): 0
[21]; 500 g al/ha
  AMARE phytotoxicity rating (0-100): 0
[22]; 63 g al/ha
  CASOB phytotoxicity rating (0-100): 0
[22]; 500 g al/ha
  CASOB phytotoxicity rating (0-100): 0
[23]; 63 g al/ha
  ABUTH phytotoxicity rating (0-100): 0
[23]; 500 g al/ha
  ABUTH phytotoxicity rating (0-100): 0
[24]; 63 g al/ha
  CORN crop damage rating (0-100): 0
[24]; 500 g al/ha
  CORN crop damage rating (0-100): 0
[25]; 63 g al/ha
  RICE crop damage rating (0-100): 0
[25]; 500 g al/ha
  RICE crop damage rating (0-100): 0
[26]; 63 g al/ha
  SOY crop damage rating (0-100): 0
[26]; 500 g al/ha
  SOY crop damage rating (0-100): 0
